# Test results reported in PubChem BioAssay AID651731 (NMMLSC, 2012).
# Calls of active or inactive are those of the source. No rule for the calls is given here.
# Target: S. cerevisiae vacuolar pH, BCECF fluorescence
# Assay: V-ATPase inhibitors raising yeast vacuolar pH, dose response, S. cerevisiae, BCECF dye, powder sets 2-3 (AID 651731)
# Details: not given
row,SMILES,EC50 [µM]
1,O=C(c1cccc(C(F)(F)F)c1)N1CCN(c2nc3ccc(F)cc3s2)CC1,31.8
2,O=C(c1cccc(C(F)(F)F)n1)N1CCN(c2nc3ccc(F)cc3s2)CC1,60.5
3,O=C(c1cccc(Cl)n1)N1CCN(c2nc3ccc(F)cc3s2)CC1,37.4

# Target: not listed separately
# Assay: as above
# Details: S. cerevisiae vacuolar pH, BCECF fluorescence; at 100 µM (top of the series)
row,SMILES,response (vacuolar pH increase)
1,O=C(Nc1ccccc1N1CCOCC1)c1ccc(C(F)(F)F)o1,inactive
2,O=C(c1cncc(Cl)n1)N1CCN(c2nc3ccc(F)cc3s2)CC1,inactive
3,NS(=O)(=O)c1cccc(C(=O)N2CCN(c3nc4ccc(F)cc4s3)CC2)c1,inactive
4,CC(C)(C)c1ccc(C(=O)N2CCN(c3nc4ccc(F)cc4s3)CC2)o1,inactive
5,O=C(Nc1ccccc1N1CCOCC1)c1cccc(C(F)(F)F)n1,inactive
6,NC(=O)c1cccc(C(=O)N2CCN(c3nc4ccc(F)cc4s3)CC2)c1,inactive
7,Cc1cccc(C(=O)N2CCN(c3nc4ccc(F)cc4s3)CC2)n1,inactive
8,CN(C)Cc1ccc(C(=O)Nc2ccccc2N2CCOCC2)o1,inactive
9,Cc1ccc(C(=O)Nc2ccccc2N2CCOCC2)o1,inactive
10,Cc1cncc(C(=O)Nc2ccccc2N2CCOCC2)n1,inactive
11,O=C(Nc1ccccc1N1CCOCC1)c1ccc(Br)o1,inactive
12,Cc1cccc(C(=O)Nc2ccccc2N2CCOCC2)n1,inactive
13,O=C(c1ccc(Br)o1)N1CCN(c2nc3ccc(F)cc3s2)CC1,inactive
14,COCc1cccc(C(=O)Nc2ccccc2N2CCOCC2)c1,inactive
15,CS(=O)(=O)Cc1cccc(C(=O)N2CCN(c3nc4ccc(F)cc4s3)CC2)c1,inactive
16,O=C(c1ccc(-c2ccccc2)o1)N1CCN(c2nc3ccc(F)cc3s2)CC1,inactive
17,COCc1ccc(C(=O)Nc2ccccc2N2CCOCC2)o1,inactive
18,O=C(c1cccc(Br)n1)N1CCN(c2nc3ccc(F)cc3s2)CC1,inactive
19,N#Cc1ccnc(C(=O)Nc2ccccc2N2CCOCC2)c1,inactive
20,Cc1ccnc(C(=O)N2CCN(c3nc4ccc(F)cc4s3)CC2)c1,inactive

row,SMILES,response (vacuolar pH increase)
1,CN(C)C(=O)c1cccc(C(=O)Nc2ccccc2N2CCOCC2)c1,inactive
2,NS(=O)(=O)c1ccc(C(=O)N2CCN(c3nc4ccc(F)cc4s3)CC2)o1,inactive
3,CN(C)S(=O)(=O)c1cccc(C(=O)N2CCN(c3nc4ccc(F)cc4s3)CC2)c1,inactive
4,Nc1cncc(C(=O)N2CCN(c3nc4ccc(F)cc4s3)CC2)n1,inactive
5,O=C(Nc1ccccc1N1CCOCC1)c1cccc(Br)n1,inactive
6,CN(C)Cc1ccc(C(=O)N2CCN(c3nc4ccc(F)cc4s3)CC2)o1,inactive
7,O=C(c1cc(Cl)ccn1)N1CCN(c2nc3ccc(F)cc3s2)CC1,inactive
8,COCc1ccc(C(=O)N2CCN(c3nc4ccc(F)cc4s3)CC2)o1,inactive
9,Nc1ncc(C(=O)Nc2ccccc2N2CCOCC2)o1,inactive
10,Cc1ccc(C(=O)N2CCN(c3nc4ccc(F)cc4s3)CC2)o1,inactive
11,O=C(Nc1ccccc1N1CCOCC1)c1cc(C(F)(F)F)ccn1,inactive
12,O=C(Nc1ccccc1N1CCOCC1)c1cccc(Cl)n1,inactive
13,CN(C)Cc1cccc(C(=O)N2CCN(c3nc4ccc(F)cc4s3)CC2)c1,inactive
14,CN(C)S(=O)(=O)c1cccc(C(=O)Nc2ccccc2N2CCOCC2)c1,inactive
15,NS(=O)(=O)c1cccc(C(=O)Nc2ccccc2N2CCOCC2)c1,inactive
16,Cc1ccnc(C(=O)Nc2ccccc2N2CCOCC2)c1,inactive
17,COCc1cccc(C(=O)N2CCN(c3nc4ccc(F)cc4s3)CC2)c1,inactive
18,CS(=O)(=O)c1ccc(C(=O)N2CCN(c3nc4ccc(F)cc4s3)CC2)o1,inactive
19,Cc1cncc(C(=O)N2CCN(c3nc4ccc(F)cc4s3)CC2)n1,inactive
20,N#Cc1cccc(C(=O)Nc2ccccc2N2CCOCC2)c1,inactive

row,SMILES,response (vacuolar pH increase)
1,Nc1ncc(C(=O)N2CCN(c3nc4ccc(F)cc4s3)CC2)o1,inactive
2,O=C(c1ccc(C(F)(F)F)o1)N1CCN(c2nc3ccc(F)cc3s2)CC1,inactive
3,NC(=O)c1cccc(C(=O)Nc2ccccc2N2CCOCC2)c1,inactive
4,O=C(Nc1ccccc1N1CCOCC1)c1cncc(Cl)n1,inactive
5,O=C(Nc1ccccc1N1CCOCC1)c1ccc(-c2ccccc2)o1,inactive
6,O=C(Nc1ccccc1N1CCOCC1)c1cccc(C(F)(F)F)c1,inactive
7,CN(C)C(=O)c1cccc(C(=O)N2CCN(c3nc4ccc(F)cc4s3)CC2)c1,inactive
8,CS(=O)(=O)c1ccc(C(=O)Nc2ccccc2N2CCOCC2)o1,inactive
9,O=C(Nc1ccccc1N1CCOCC1)c1cc(Cl)ccn1,inactive
10,NC(=O)c1ccc(C(=O)N2CCN(c3nc4ccc(F)cc4s3)CC2)o1,inactive
11,Nc1cncc(C(=O)Nc2ccccc2N2CCOCC2)n1,inactive
12,CC(C)(C)c1ccc(C(=O)Nc2ccccc2N2CCOCC2)o1,inactive
13,CS(=O)(=O)c1cccc(C(=O)Nc2ccccc2N2CCOCC2)c1,inactive
14,O=C(c1cc(CO)ccn1)N1CCN(c2nc3ccc(F)cc3s2)CC1,inactive
15,CN(C)Cc1cccc(C(=O)Nc2ccccc2N2CCOCC2)c1,inactive
16,N#Cc1ccnc(C(=O)N2CCN(c3nc4ccc(F)cc4s3)CC2)c1,inactive
17,O=C(c1cc(C(F)(F)F)ccn1)N1CCN(c2nc3ccc(F)cc3s2)CC1,inactive
18,N#Cc1cccc(C(=O)N2CCN(c3nc4ccc(F)cc4s3)CC2)c1,inactive
